According to patent US6887676B1 (priority 1999, dated 2005):

Assays:
[1] = target: T1, type 1 PrP^Sc (Homo sapiens, UniProt P04156); format: biochemical; details: FIGS. 3e and f; for ability of selective chelator to mirror the EDTA action on type 1 PrP^Sc cleavage: 20 mM chelator, N-ethylmorpholine buffer; for cleavage pattern of type 1 PrP^Sc digested in presence of copper-selective chelator: 20 mM, intermediate between type 1 and type 2^-
[2] = target: T1, type 1 PrP^Sc; details: for effectiveness in maintaining type 1 PrP^Sc conformation: 30 μM metal ion; for effect of metal ion on electrophoretic mobility of metal-depleted, proteinase K digested type 1 PrP^Sc: exposure prior to and during electrophoresis, FIG. 4b; for digestion products of type 1 PrP^Sc washed in maintained presence of metal ion: total concentrations observed in serum, FIG. 4a; for concentration at which type 1 PrP^Sc conformation could be readily maintained: washing before PK digestion
[3] = tested on: amyloid Aβ protein; details: cited from earlier work
[4] = target: recombinant full length hamster PrP (Mesocricetus auratus, UniProt P04273); details: read-out: dissociation constant of Cu^2+ binding; cited from earlier work
[5] = target: type 2 PrP^Sc (Homo sapiens, UniProt P04156); details: different concentrations; FIG. 4d

recombinant full length hamster PrP, sequence (P04273 23-254 limits assumed): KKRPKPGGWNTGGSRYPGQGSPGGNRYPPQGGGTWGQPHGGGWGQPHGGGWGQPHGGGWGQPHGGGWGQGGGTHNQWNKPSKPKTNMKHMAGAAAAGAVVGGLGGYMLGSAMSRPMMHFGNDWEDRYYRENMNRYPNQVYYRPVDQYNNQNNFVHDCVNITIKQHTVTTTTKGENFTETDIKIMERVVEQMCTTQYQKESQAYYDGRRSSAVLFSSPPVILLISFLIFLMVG

c1cnc2c(c1)ccc1cccnc12 [1, 10 phenanthroline]
ability of selective chelator to mirror the EDTA action on type 1 PrP^Sc cleavage [1]: unable to precisely mirror this action

[Cl-].[Cl-].[Co+2] [Co^2+]
effectiveness in maintaining type 1 PrP^Sc conformation ([2]; FIG. 4c): only Ni^2+ can effectively substitute
cleavage pattern of type 1 PrP^Sc after washing and digestion with Co^2+ ([2]; 30 μM, FIG. 4c): intermediate pattern
induction of aggregation of Aβ protein [3]: also effective

O=S(=O)([O-])[O-].[Cu+2] [Cu^2+]
Kd [4]: 14 µM
cleavage pattern of type 1 PrP^Sc after washing and digestion with Cu^2+ ([2]; 20 μM of range 10-25 μM, FIG. 4a lanes 6-8): migrated with a mobility similar to that of the type 2 products
effect of metal ion on electrophoretic mobility of metal-depleted, proteinase K digested type 1 PrP^Sc [2]: had no effect
digestion products of type 1 PrP^Sc washed in maintained presence of metal ion [2]: digestion products closely resembled those generated from untreated type 1 PrP^Sc
concentration at which type 1 PrP^Sc conformation could be readily maintained [2]: higher concentrations of Cu^2+ were required
induction of aggregation of Aβ protein [3]: able to induce aggregation of Aβ protein
digestion products of type 2 PrP^Sc washed in maintained presence of metal ion [5]: either the original type 2 pattern of digestion products, or a new pattern of higher molecular mass cleavage fragments closely similar to those generated from untreated type 1 PrP^Sc

O=C(O)CN(CCOCCOCCN(CC(=O)O)CC(=O)O)CC(=O)O [EGTA]
ability of selective chelator to mirror the EDTA action on type 1 PrP^Sc cleavage [1]: unable to precisely mirror this action
cleavage pattern of type 1 PrP^Sc digested in presence of copper-selective chelator [1]: intermediate pattern

[Cl][Mn][Cl] [Mn^2+]
effectiveness in maintaining type 1 PrP^Sc conformation ([2]; FIG. 4c): only Ni^2+ can effectively substitute

[Cl][Ni][Cl] [Ni^2+]
effectiveness in maintaining type 1 PrP^Sc conformation ([2]; FIG. 4c): can effectively substitute
induction of aggregation of Aβ protein [3]: also effective

[Cl-].[Cl-].[Zn+2] [Zn^2+]
effect of metal ion on electrophoretic mobility of metal-depleted, proteinase K digested type 1 PrP^Sc [2]: had no effect
digestion products of type 1 PrP^Sc washed in maintained presence of metal ion [2]: digestion products closely resembled those generated from untreated type 1 PrP^Sc
concentration at which type 1 PrP^Sc conformation could be readily maintained [2]: 10 µM
induction of aggregation of Aβ protein [3]: able to induce aggregation of Aβ protein
digestion products of type 2 PrP^Sc washed in maintained presence of metal ion [5]: either the original type 2 pattern of digestion products, or a new pattern of higher molecular mass cleavage fragments closely similar to those generated from untreated type 1 PrP^Sc

O=S(=O)(O)c1ccc(-c2ccnc3c2ccc2c(-c4ccc(S(=O)(=O)O)cc4)ccnc23)cc1 [bathophenanthroline disulfonic acid]
ability of selective chelator to mirror the EDTA action on type 1 PrP^Sc cleavage [1]: unable to precisely mirror this action

O=C(O)c1cccc(C(=O)O)n1 [dipicolinic acid]
ability of selective chelator to mirror the EDTA action on type 1 PrP^Sc cleavage [1]: unable to precisely mirror this action

Cc1ccc2ccc3ccc(C)nc3c2n1 [neocuproine]
ability of selective chelator to mirror the EDTA action on type 1 PrP^Sc cleavage [1]: unable to precisely mirror this action

NCCNCCNCCN [triethylenetetramine]
ability of selective chelator to mirror the EDTA action on type 1 PrP^Sc cleavage [1]: unable to precisely mirror this action
cleavage pattern of type 1 PrP^Sc digested in presence of copper-selective chelator [1]: intermediate pattern
